The subject of assay [1] is LTB4 biosynthesis in human PMNL. Description: Inhibition of calcium ionophore A23187-induced LTB4 biosynthesis in human polymorphonuclear leukocytes (PMNL). It is filed as cell-based. The note with it: human PMNL (5×10^6 cells/250 μL), 15 min preincubation at 37° C., A23187 8.3 μM, 10 min, LTB4 by HPLC. How it is done:
Inhibition of leukotriene biosynthesis was evaluated in assays, involving calcium ionophore-induced LTB4 biosynthesis expressed by human polymorphonuclear leukocytes (PMNL) or human whole blood. Human PMNL were isolated from heparinized (20 USP units/mL) venous blood using Ficoll-Hypaque Mono-Poly Resolving Medium. Human PMNL suspensions (5×10^6 cells/250 μL) were preincubated with test compounds or vehicle for 15 min at 37° C. followed by calcium ionophore A23187 challenge (final concentration of 8.3 μM) and the reaction terminated after 10 min by adding two volumes of methanol containing prostaglandin B2 as an internal recovery standard. The methanol extracts were analyzed for LTB4 content by HPLC.

For assay [2], the system named is LTB4 biosynthesis in human whole blood. Description: Inhibition of calcium ionophore A23187-induced LTB4 biosynthesis in human whole blood. It is filed as cell-based. The note with it: 0.5 h; human heparinized whole blood, A23187 50 μM, 30 minutes at 37° C., LTB4 by radioimmunoassay. How it is done: The assay using human heparinized whole blood was incubated for 30 minutes at 37° C. after adding 50 μM of ionophore A23187. The plasma layer was obtained by centrifugation and deproteinized by the addition of four volumes of methanol. The methanol extract was analyzed for LTB4 using a commercially available radioimmunoassay.

Assay [3] concerns leukotriene biosynthesis. Nature of the assay: Inhibition of leukotriene biosynthesis in vivo, rat peritoneal anaphylaxis model, oral administration. The note with it: for percent inhibition of leukotriene biosynthesis: oral dose of 30 μmol/kg, gavage one hour prior to antigen challenge. How it is done: Inhibition of the biosynthesis of leukotrienes in vivo after oral administration of compound was determined using a rat peritoneal anaphylaxis model in a similar manner as that described by Young and coworkers (Young, P. R.; Dyer, R. D.; Carter, G. W. Fed. Proc., Fed. Am. Soc. Exp. Biol. 1985, 44, 1185). In this model rats were injected intraperitoneally (ip) with rabbit antibody to bovine serum albumin (BSA) and three hours later injected ip with BSA to induce an antigen-antibody response. Rats were sacrificed 15 minutes after this challenge and the peritoneal fluids were collected and analyzed for leukotriene levels. Test compounds were administered by gavage one hour prior to the antigen challenge. Percent inhibition values were determined by comparing the treatment group to the mean of the control group. […] Compounds 5, 8, and 9 inhibit>50% leukotriene biosynthesis with an oral dose of 30 μmol/kg.

Molecules are shown by their SMILES.

In general, IC50 refers to the concentration that inhibits the measured activity by half. What is called ED50 is the dose that gives a 50% effect, or the effect in half of the subjects.

Regarding `CC(C)(C)Sc1c(CC(C)(C)C(=O)O)n(Cc2ccc(Cl)cc2)c2ccc(OCc3cccnc3)cc12` [Example 1, 3-[1-(4-chlorobenzyl)-3-(1,1-dimethylethylthio)-5-(pyrid-3-ylmethoxy)-indol-2-yl]-2,2-dimethylpropionic acid], the IC50 amounted to 17 nM in assay [1] and 1090 nM in assay [2].
For the molecule `CC(C)(C)Sc1c(CC(C)(C)C(=O)O)n(Cc2ccc(Cl)cc2)c2ccc(OCc3ccncc3)cc12` [Example 2, 3-[1-(4-chlorobenzyl)-3-(1,1-dimethylethylthio)-5-(pyrid-4-ylmethoxy)-indol-2-yl]-2,2-dimethylpropionic acid], the half-maximal inhibitory concentration (IC50) in assay [1] was below 100 nM; in assay [2] it was 840 nM.
For the molecule `CC(C)(C)Sc1c(CC(C)(C)C(=O)O)n(Cc2ccc(Cl)cc2)c2ccc(OCc3ccccn3)cc12` [Example 3, 3-[1-(4-chlorobenzyl)-3-(1,1-dimethylethylthio)-5-(pyrid-2-ylmethoxy)indol-2-yl]-2,2-dimethylpropionic acid], the IC50 in assay [1] is below 50 nM; in assay [2] it was 50 nM. Also, the ED50 in assay [3] (1 h, po (gavage) one hour prior to antigen challenge, read-out: inhibits leukotriene biosynthesis, ED50) stood at 0.1 mg/kg.
For `CC(C)(C)Sc1c(CC(C)(C)C(=O)O)n(Cc2ccc(Cl)cc2)c2ccc(OCc3ccc4ccccc4c3)cc12` [Example 4, 3-[1-(4-chlorobenzyl)-3-(1,1-dimethylethylthio)-5-(napth-2-ylmethoxy)indol-2-yl]-2,2-dimethylpropionic acid], the concentration for half-maximal inhibition (IC50) in assay [1] came to 12 nM; in assay [2], 4420 nM.
Turning to `CC(C)(C)Sc1c(CC(C)(C)C(=O)O)n(Cc2ccc(Cl)cc2)c2ccc(Oc3ccccn3)cc12` [Example 5, 3-[1-(4-chlorobenzyl)-3-(1,1-dimethylethylthio)-5-(pyrid-2-yloxy)indol-2-yl]-2,2-dimethylpropionic acid], the concentration for half-maximal inhibition (IC50) in assay [1] came out at 15 nM; in assay [2] it was 2470 nM. For the same molecule, in assay [3], the “percent inhibition of leukotriene biosynthesis” value (“percent inhibition” for short) was above 50%.
As for `CC(C)(C)Sc1c(CC(C)(C)C(=O)O)n(Cc2ccc(Cl)cc2)c2ccc(OCc3ccc(Cl)s3)cc12` [Example 6, 3-[1-(4-chlorobenzyl)-5-(5-chlorothien-2-ylmethoxy)-3-(1,1-dimethylethylthio)indol-2-yl]-2,2-dimethylpropionic acid], the half-maximal inhibitory concentration (IC50) in assay [1] is below 800 nM; in assay [2], 3200 nM.
`Cc1cc(C)nc(COc2ccc3c(c2)c(SC(C)(C)C)c(CC(C)(C)C(=O)O)n3Cc2ccc(Cl)cc2)n1` [Example 7, 3-[1-(4-chlorobenzyl)-3-(1,1-dimethylethylthio)-5-(4,6-dimethylpyrimid-2-ylmethoxy)indol-2-yl]-2,2-dimethylpropionic acid]: the values for the IC50 in assay [1] and in assay [2] were 30 nM and 1600 nM, respectively.
For `CC(C)(C)Sc1c(CC(C)(C)C(=O)O)n(Cc2ccc(Cl)cc2)c2ccc(OCc3cccc(Cl)n3)cc12` [Example 8, 3-[1-(4-chlorobenzyl)-5-(6-chloropyrid-2-ylmethoxy)-3-(1,1-dimethylethylthio)indol-2-yl]-2,2-dimethylpropionic acid], the IC50 in assay [1] is 17 nM; in assay [2] it was 110 nM. The “percent inhibition” value in assay [3] is reported as above 50%.
Regarding `CC(C)(C)Sc1c(CC(C)(C)C(=O)O)n(Cc2ccc(Cl)cc2)c2ccc(OCc3cscn3)cc12` [Example 9, 3-[1-(4-chlorobenzyl)-3-(1,1-dimethylethylthio)-5-(thiazol-4-ylmethoxy)indol-2-yl]-2,2-dimethylpropionic acid], the IC50 worked out at 4.4 nM in assay [1] and 40 nM in assay [2]. Also, in assay [3], the “percent inhibition” value is listed as above 50%.
On to `CC(C)(C)Sc1c(CC(C)(C)C(=O)O)n(Cc2ccc(Cl)cc2)c2ccc(OCc3cccs3)cc12` [Example 10, 3-[1-(4-chlorobenzyl)-3-(1,1-dimethylethylthio)-5-(thien-2-ylmethoxy)indol-2-yl]-2,2-dimethylpropionic acid], for which the IC50 in assay [1] was determined as 7 nM; in assay [2], 1400 nM.
